Here are results for four compounds from US4418060A, “Therapeutically active complexes of tetracyclines” (priority 1971, dated 1983).

For data set [1] the following is noted: cited from earlier work.
For data set [2] the following is noted: per os; cited from earlier work.
The conditions of data set [3]: cited from earlier work. The source holds these as a separate data set.
The conditions of data set [4]: background statement; cited from earlier work.
The conditions of data set [5]: cited from earlier work. This is another data set of the same source.
For data set [6], the system named is tetracycline-resistant Proteus strains. The conditions noted are these: cited from earlier work.
Data set [7] is described as follows: Toxicity data (LD50) of tetracyclines and Tri-tetracyclines in mice. Particulars: mouse, in vivo, oral.
Data set [8] in a line: Chloroform/water distribution quotient. The class given is physicochemical. The conditions noted are these: pH=7.4. An excerpt:
The solution is filled into ampoules in nitrogen atmosphere.

With `NC(CO)(CO)CO` [tris(hydroxymethyl)aminomethane], the pK in data set [1] is 8.33.

Regarding `C[C@H]1c2cccc(O)c2C(O)=C2C(=O)[C@]3(O)C(O)=C(C(N)=O)C(=O)[C@@H](N(C)C)[C@@H]3[C@@H](O)[C@@H]21` [doxycycline, 6-deoxy-5-hydroxytetracycline], in data set [2], the gastrointestinal disorders result was “gastrointestinal disorders can be observed”. For the same compound, the excretion entry in data set [3] (in vivo) is given as “with faeces as well”.

Take `CC(=O)C1=C(O)C2(O)C(=O)c3c(c(C)c4ccc(C)c(O)c4c3O)CC2C(N)C1=O` (stereo not drawn) [chelocardin, 2-decarboxamido-2-acetyl-4-dedimethylamino-4-epiamino-9-methyl-5a,6-anhydrotetracyline]: the absorption result in data set [3] (peroral) is “low absorption value”. For the same compound, the water solubility result in data set [4] is reported as “lower than that of other tetracyclines”. Also, the lipid solubility entry in data set [5] is given as “moderately lipid soluble”. Also, the “effect against tetracycline-resistant Proteus” value in data set [6] is recorded as “effective”.

As to `CN(C)[C@@H]1C(=O)C(C(N)=O)=C(O)[C@@]2(O)C(=O)C3=C(O)c4c(O)cccc4[C@@](C)(O)[C@H]3[C@H](O)[C@@H]12` [OTC, 5-hydroxytetracycline], the 50% lethal dose (LD50) in data set [7] came out at 2500 mg/kg. Besides, the “chloroform/water distribution quotient K” value in data set [8] amounted to 0.008.
